Results on 44 compounds are retold here after patent publication US11485737B2, “Diaryl substituted 5,5-fused ring compounds as C5aR inhibitors” (CHEMOCENTRYX, INC., priority 2017, dated 2022).

The target of this experiment is T1, C5aR (Homo sapiens, UniProt P21730).
T1 construct: U937 cells are a monocytic cell line which express C5aR; host or cells: U937 cells (cAMP-treated overnight)
T1 sequence (P21730 1-350): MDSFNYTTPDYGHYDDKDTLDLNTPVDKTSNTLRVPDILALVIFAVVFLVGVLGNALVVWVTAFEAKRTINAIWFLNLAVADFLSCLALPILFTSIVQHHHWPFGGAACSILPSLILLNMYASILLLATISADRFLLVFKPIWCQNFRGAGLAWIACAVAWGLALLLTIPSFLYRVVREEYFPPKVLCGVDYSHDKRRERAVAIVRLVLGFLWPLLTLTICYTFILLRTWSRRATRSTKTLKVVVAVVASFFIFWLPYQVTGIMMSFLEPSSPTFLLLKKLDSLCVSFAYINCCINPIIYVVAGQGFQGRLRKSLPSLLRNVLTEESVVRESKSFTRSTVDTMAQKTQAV
The experiment is described as follows: Chemotaxis assay using U937 cells (C5a-induced migration). Format: cell-based. Conditions: chemotaxis (migration) of U937 cells towards C5a; read-out: Mig IC50. As to the method: U937 cells are a monocytic cell line which express C5aR, and are available from ATCC (VA). These cells were cultured as a suspension in RPMI-1640 medium supplemented with 2 mM L-glutamine, 1.5 g/L sodium bicarbonate, 4.5 g/L glucose, 10 mM HEPES, 1 mM sodium pyruvate, and 10% FBS. Cells were grown under 5% CO2/95% air, 100% humidity at 37° C. and subcultured twice weekly at 1:6 (cells were cultured at a density range of 1×10^5 to 2×10^6 cells/mL) and harvested at 1×10^6 cells/mL. Prior to assay, cells are treated overnight with 0.5 mM of cyclic AMP (Sigma, OH) and washed once prior to use. cAMP treated U937 cells can be used in C5aR ligand binding and functional assays.
Optionally, compounds may be further assayed for their ability to inhibit chemotaxis in cells. Chemotaxis assays are performed using 5 μm pore polycarbonate, polyvinylpyrrolidone-coated filters in 96-well chemotaxis chambers (Neuroprobe; Gaithersburg, Md.) using chemotaxis buffer (Hank's balanced salt solution (HBSS) and 1% FBS). C5aR ligands (i.e., C5a, R&D Systems; Minneapolis, Minn.) are use to evaluate compound mediated inhibition of C5aR mediated migration. Other chemokines (i.e., SDF-1α; R&D Systems; Minneapolis, Minn.) are used as specificity controls. The lower chamber is loaded with 29 μl of chemokine (i.e., 0.03 nM C5a) and varying amounts of compound; the top chamber contains 100,000 U937 or neutrophil cells in 20 μl. The chambers are incubated 1.5 hours at 37° C., and the number of cells in the lower chamber quantified either by direct cell counts in five high powered fields per well or by the CyQuant assay (Molecular Probes), a fluorescent dye method that measures nucleic acid content and microscopic observation.
The compounds in Table 1, below, were prepared using the methods described above. Characterization data is provided for each compound listed. Activity is provided as follows for the chemotaxis assay using U937 cells as described herein (Example 7): +, 500 nM<IC50; ++, 50 nM<IC50<500 nM; +++, 5 nM<IC50<50 nM; and ++++, IC50<5 nM.
As for `CCc1cccc(CC)c1-n1nc2c(c1-c1cc(Cl)c(NC(N)=O)cc1F)CN(Cc1ccc(C(F)(F)F)cc1C(F)(F)F)C2(C)C` [Compound 1.001, 1-(4-(5-(2,4-bis(trifluoromethyl)benzyl)-2-(2,6-diethylphenyl)-6,6-dimethyl-2,4,5,6-tetrahydropyrrolo[3,4-c]pyrazol-3-yl)-2-chloro-5-fluorophenyl)urea], the IC50 was < 5 nM.
Under `CCc1cccc(CC)c1-n1nc2c(c1-c1cc(OC)c(NC(N)=O)cc1F)CN(Cc1ccc(C(F)(F)F)cc1C(F)(F)F)C2(C)C` [Compound 1.002] stands < 5 nM.
`CCc1cccc(CC)c1-n1nc2c(c1-c1cc(C)c(NC(N)=O)cc1F)CN(Cc1ccc(C(F)(F)F)cc1C(F)(F)F)C2(C)C` [Compound 1.003]: the IC50 is < 5 nM.
Under `CCc1cccc(CC)c1-n1nc2c(c1-c1cc(F)c(NC(N)=O)cc1F)CN(CC(C)(C)C(F)(F)F)C2(C)C` [Compound 1.004, 1-(4-(2-(2,6-diethylphenyl)-6,6-dimethyl-5-(3,3,3-trifluoro-2,2-dimethylpropyl)-2,4,5,6-tetrahydropyrrolo[3,4-c]pyrazol-3-yl)-2,5-difluorophenyl)urea] stands < 5 nM.
As for `CCc1cccc(CC)c1-n1nc2c(c1-c1ccc(C(N)=O)c(F)c1)CN(Cc1ccc(C(F)(F)F)cc1C(F)(F)F)C2(C)C` [Compound 1.005], the IC50 was > 500 nM.
In the case of `Cc1cccc(C)c1-n1nc2c(c1-c1cc(F)c(NC(N)=O)cc1F)CN(Cc1ccccc1C(F)(F)F)C2(C)C` [Compound 1.006] it was < 5 nM; in that of `Cc1cccc(C)c1-n1nc2c(c1-c1cc(F)c(NC(N)=O)cc1F)CN(Cc1ccc(C(F)(F)F)cc1C(F)(F)F)C2(C)C` [Compound 1.007], < 5 nM; in that of `CCc1cccc(CC)c1-n1nc2c(c1-c1cc(F)c(NC(N)=O)cc1C)CN(CC1(C)COC1)C2(C)C` [Compound 1.008], 5 to 50 nM.
In the case of `CCc1cccc(CC)c1-n1nc2c(c1-c1cc(F)c(NC(N)=O)cc1C)CN(Cc1ccccc1C(F)(F)F)C2(C)C` [Compound 1.009] it was < 5 nM; in that of `CCc1cccc(CC)c1-n1nc2c(c1-c1cc(F)c(NC(N)=O)cc1C)CN(Cc1ccc(C(F)(F)F)cc1C(F)(F)F)C2(C)C` [Compound 1.010], < 5 nM; in that of `CCc1cccc(CC)c1-n1nc2c(c1-c1cc(F)c(NC(N)=O)cc1F)CN(Cc1cc(Cl)ccc1Cl)C2(C)C` [Compound 1.011], < 5 nM.
In the case of `CCc1cccc(CC)c1-n1nc2c(c1-c1cc(F)c(NC(N)=O)cc1F)CN(C(=O)CC(C)C)C2(C)C` [Compound 1.012] it was < 5 nM; in that of `CCc1cccc(CC)c1-n1nc2c(c1-c1cc(F)c(NC(N)=O)cc1F)CN(C(=O)C(C)CC)C2(C)C` (centres unmarked) [Compound 1.013], < 5 nM; in that of `CCc1cccc(CC)c1-n1nc2c(c1-c1cc(F)c(NC(N)=O)cc1F)CN(Cc1ccccc1C(F)(F)F)C2(C)C` [Compound 1.014], < 5 nM.
`CCc1cccc(CC)c1-n1nc2c(c1-c1cc(F)c(NC(N)=O)cc1F)CN(CC1CCOCC1)C2(C)C` [Compound 1.015]: the IC50 is < 5 nM.
Under `CCc1cccc(CC)c1-n1nc2c(c1-c1cc(F)c(NC(N)=O)cc1F)CN(C(=O)C(C)C)C2(C)C` [Compound 1.016, 1-(4-(2-(2,6-diethylphenyl)-5-isobutyryl-6,6-dimethyl-2,4,5,6-tetrahydropyrrolo[3,4-c]pyrazol-3-yl)-2,5-difluorophenyl)urea] stands 5 to 50 nM; under `CCc1cccc(CC)c1-n1nc2c(c1-c1cc(F)c(NC(N)=O)cc1F)CN(Cc1cc(C(F)(F)F)ccc1C(F)(F)F)C2(C)C` [Compound 1.017], < 5 nM; under `CCc1cccc(CC)c1-n1nc2c(c1-c1cc(F)c(NC(N)=O)cc1F)CN(Cc1ccc(C(F)(F)F)cc1C(F)(F)F)C2(C)C` [Compound 1.018], < 5 nM.
In the case of `Cc1cccc(C)c1-n1nc2c(c1-c1ccc(NC(N)=O)cc1)CN(CC(C)(C)C)C2(C)C` [Compound 1.019] it was 50 to 500 nM; in that of `Cc1cccc(C)c1-n1nc2c(c1-c1ccc(C(N)=O)cc1)CN(c1ccc(C(F)(F)F)c(Cl)c1)C2=O` [Compound 1.020], > 500 nM.
For `Cc1ccc(C(C)(C)C)cc1N1Cc2c(nn(-c3c(C)cccc3C)c2-c2ccc(NC(N)=O)cc2)C1=O` [Compound 1.021], the IC50 was > 500 nM.
Under `Cc1cccc(C)c1-n1nc2c(c1-c1ccc(NC(N)=O)cc1)CN(CC(C)(C)C)C2` [Compound 1.022] stands 50 to 500 nM; under `Cc1cc(C(N)=O)ccc1-c1c2c(nn1-c1c(C)cccc1C)C(=O)N(c1cc(C(C)(C)C)ccc1C)C2` [Compound 1.023], 50 to 500 nM.
On to `Cc1cc(-c2c3c(nn2-c2c(C)cccc2C)C(=O)N(c2cc(C(C)(C)C)ccc2C)C3)ccc1C(N)=O` [Compound 1.024], for which the IC50 lay within 5 to 50 nM.
`Cc1cc(-c2c3c(nn2-c2c(C)cccc2C)CN(c2cc(C(C)(C)C)ccc2C)C3=O)ccc1C(N)=O` [Compound 1.025]: the IC50 was > 500 nM.
For `Cc1cccc(C)c1-n1nc2c(c1-c1ccc(C(N)=O)cc1)CN(c1cccc(C(C)(C)C)n1)C2` [Compound 1.027], the IC50 is > 500 nM.
As for `Cc1cccc(C)c1-n1nc2c(c1-c1ccc(C(N)=O)cc1)CN(c1cc(C(C)(C)C)ccn1)C2` [Compound 1.028], the IC50 was > 500 nM.
Under `Cc1cccc(C)c1-n1nc2c(c1-c1ccc(NC(N)=O)cc1)CN(C(=O)OC(C)(C)C)C2` [Compound 1.029] stands > 500 nM.
Under `Cc1ccc(C(C)(C)C)cc1N1Cc2c(nn(-c3c(C)cccc3C)c2-c2ccc(C(N)=O)cc2)C1=O` [Compound 1.030] stands 5 to 50 nM; under `Cc1ccc(C(C)(C)C)cc1N1Cc2nn(-c3c(C)cccc3C)c(-c3ccc(C(N)=O)cc3)c2C1=O` [Compound 1.031], 5 to 50 nM.
Under `COc1cccc(C)c1-n1nc2c(c1-c1ccc(NC(N)=O)cc1)CN(C(=O)NC(C)(C)C)C2` [Compound 1.032] stands > 500 nM.
With `Cc1cccc(C)c1-n1nc2c(c1-c1ccc(C(N)=O)cc1)CN(C(=O)NC(C)(C)C)C2` [Compound 1.033], the IC50 was > 500 nM.
For `Cc1cccc(C)c1-n1nc2c(c1-c1ccc(C(N)=O)cc1)CN(c1ccc(F)cc1C(C)C)C2` [Compound 1.034], the IC50 was in the range of 50 to 500 nM.
In the case of `Cc1cc(F)c(C(C)C)cc1N1Cc2nn(-c3c(C)cccc3C)c(-c3ccc(C(N)=O)cc3)c2C1` [Compound 1.035, 4-(2-(2,6-dimethylphenyl)-5-(4-fluoro-5-isopropyl-2-methylphenyl)-2,4,5,6-tetrahydropyrrolo[3,4-c]pyrazol-3-yl)benzamide] it was 5 to 50 nM; in that of `Cc1cccc(C)c1-n1nc2c(c1-c1ccc(C(N)=O)cc1)CN(C(=O)c1ccc(C(C)(C)C)cc1)C2` [Compound 1.036], > 500 nM.
In the case of `Cc1cccc(C)c1-n1nc2c(c1-c1ccc(C(N)=O)cc1)CN(C(=O)c1ccccc1)C2` [Compound 1.037] it was > 500 nM; in that of `Cc1cccc(C)c1-n1nc2c(c1-c1ccc(C(N)=O)cc1)CN(C(=O)OC(C)(C)C)C2` [Compound 1.038], > 500 nM; in that of `Cc1ccc(N2Cc3nn(-c4c(C)cccc4C)c(-c4ccc(C(N)=O)cc4)c3C2)cc1C(F)(F)F` [Compound 1.039], > 500 nM.
On to `Cc1cc(C(N)=O)ccc1-c1c2c(nn1-c1c(C)cccc1C)CN(c1cc(C(C)(C)C)ccc1C)C2` [Compound 1.040], for which the IC50 was in the range of 50 to 500 nM.
For `Cc1ccc(C(C)(C)C)cc1N1Cc2nn(-c3c(C)cccc3OCC(C)C)c(-c3ccc(C(N)=O)cc3)c2C1` [Compound 1.041], the IC50 was < 5 nM.
In the case of `Cc1ccc(C(C)(C)C)cc1N1Cc2nn(-c3c(C)cccc3C)c(-c3ccc(C(=O)NC4CCCC4)cc3)c2C1` [Compound 1.042] it was > 500 nM; in that of `Cc1ccc(C(C)(C)C)cc1N1Cc2nn(-c3c(C)cccc3C)c(-c3ccc(C(=O)O)cc3)c2C1` [Compound 1.043], > 500 nM; in that of `COc1cccc(C)c1-n1nc2c(c1-c1ccc(NC(N)=O)cc1)CN(c1ccccc1C(C)C)C2` [Compound 1.044], 50 to 500 nM.
On to `Cc1cccc(C)c1-n1nc2c(c1-c1ccc(NC(N)=O)cc1)CN(c1ccccc1C(C)C)C2` [Compound 1.045], for which the concentration for half-maximal inhibition (IC50) was 50 to 500 nM.
